Test results as given in US11324717B2, “Microbial carotenoids affecting gut microbial composition” (Microbial Research Management Health NV, priority 2016, dated 2022).

Tests used:
gut microbiota = assay: Gut microbiome composition (fecal DGGE cluster analysis) in rats on high-fat diet; format: in vivo, Sprague-Dawley rats; settings: daily oral gavage in peanut oil for 8 weeks, carotenoids 10-50 pg/d, lutein 25 μg/d, vs HF controls
Description: To evaluate the effect of carotenoids from PD01 on gut microbiome composition in vivo, male Sprague-Dawley rats of 90 days of age were daily dosed for 8 weeks with carotenoids from PD01, either as carotenoid extract or as carotenoids contained in spores or vegetative cells. The experiment consisted of administration of a high-fat (HF) diet to the animals, which mimics a standardized western diet and is associated with the development of metabolic syndrome within 8 weeks of administration. In addition to a HF control group, separate groups of animals received the HF diet in combination with one of the carotenoid formulations from PD01. To do this, the carotenoid formulations were suspended in peanut oil and given by oral gavage to the rats in addition to the HF diet. The corresponding daily dose of carotenoids was in the range of […]. A control group receiving a standard low-fat (LF) diet was included to allow assessment of the specific effect of the HF diet on the gut microbiome composition. Additionally, one extra HF group was included, receiving the plant-derived carotenoid lutein, in the same amount as the bacterial carotenoids (i.e. 25 μg/d). This allows comparison of the effect of bacterial vs. plant-derived carotenoids on the gut microbiome composition. To monitor the effects of the different formulations on the gut microbiota, DGGE profiles were prepared. […]

[1] = tested on: Caco-2/THP1XB co-cultures; assay: Gut barrier function: TEER in Caco-2/THP1XB co-cultures (transwell); format: cell-based; settings: 18 h after treatment of Caco-2/THP1XB co-cultures
Description: The effect on the host of the carotenoids from PD01 (derived from either vegetative cells or spores) on gut barrier function, was studied in Caco-2/THP1XB co-cultures, according to methods described in Possemiers et al. (2013, J Agric Food Chem 61). Endpoint of the measurement was a change from control in the transepithelial electrical resistance (TEER) in a transwell setup.

| SMILES | gut microbiome composition (DGGE cluster analysis of fecal samples) (gut microbiota) | transepithelial electrical resistance (TEER), change from control [1] |
| --- | --- | --- |
| CC1=C[C@H](O)CC(C)(C)[C@H]1/C=C/C(C)=C/C=C/C(C)=C/C=C/C=C(C)/C=C/C=C(C)/C=C/C1=C(C)C[C@@H](O)CC1(C)C [lutein] | clustered together with those of the HF controls | – |
| Cc1c(C)c2c(c(C)c1O)CC[C@@](C)(CCC[C@H](C)CCC[C@H](C)CCCC(C)C)O2 [α-tocopherol] | – | did not induce protection |
